pKi: −log10 of the molar value.
Legend:
[1] = target: T1, Alpha-1D adrenergic receptor (Homo sapiens, UniProt P25100); assay: Inhibition of binding of [125I]HEAT to cloned human alpha-1D adrenergic receptor.
T1 sequence (P25100 whole entry): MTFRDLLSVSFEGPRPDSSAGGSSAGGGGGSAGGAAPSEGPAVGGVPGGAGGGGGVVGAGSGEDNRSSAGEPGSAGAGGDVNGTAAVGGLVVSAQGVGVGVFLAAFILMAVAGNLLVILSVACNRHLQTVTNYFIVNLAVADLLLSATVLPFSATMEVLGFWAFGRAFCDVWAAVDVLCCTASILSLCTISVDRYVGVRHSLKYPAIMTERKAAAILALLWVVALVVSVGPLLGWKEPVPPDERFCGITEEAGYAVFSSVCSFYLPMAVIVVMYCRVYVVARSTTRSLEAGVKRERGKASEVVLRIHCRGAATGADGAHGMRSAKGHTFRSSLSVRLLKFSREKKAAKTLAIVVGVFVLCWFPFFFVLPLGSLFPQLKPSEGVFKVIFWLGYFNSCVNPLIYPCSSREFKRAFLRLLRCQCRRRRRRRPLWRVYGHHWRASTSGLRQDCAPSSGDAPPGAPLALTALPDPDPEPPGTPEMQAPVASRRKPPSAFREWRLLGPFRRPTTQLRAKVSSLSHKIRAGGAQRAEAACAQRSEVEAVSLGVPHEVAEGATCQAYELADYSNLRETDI

[2] = target: T2, Alpha-1A adrenergic receptor (Homo sapiens, UniProt P35348); assay: Inhibition of binding of [125I]HEAT to cloned human alpha-1A adrenergic receptor.
T2 sequence (P35348 whole entry): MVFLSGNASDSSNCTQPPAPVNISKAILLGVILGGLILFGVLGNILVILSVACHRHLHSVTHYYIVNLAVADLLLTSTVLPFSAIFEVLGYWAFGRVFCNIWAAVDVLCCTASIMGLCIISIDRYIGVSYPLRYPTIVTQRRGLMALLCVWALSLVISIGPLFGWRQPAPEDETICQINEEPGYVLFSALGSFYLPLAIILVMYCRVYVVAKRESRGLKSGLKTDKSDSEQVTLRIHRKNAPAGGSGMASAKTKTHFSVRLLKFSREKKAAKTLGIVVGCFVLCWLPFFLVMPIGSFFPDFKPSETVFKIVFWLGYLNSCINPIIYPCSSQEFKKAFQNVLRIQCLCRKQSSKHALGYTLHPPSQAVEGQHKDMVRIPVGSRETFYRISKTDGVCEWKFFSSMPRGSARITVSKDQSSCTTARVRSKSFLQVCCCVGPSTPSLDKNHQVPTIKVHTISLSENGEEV

[3] = target: T3, Alpha-1B adrenergic receptor (Homo sapiens, UniProt P35368); assay: Inhibition of binding of [125I]HEAT to cloned human alpha-1B adrenergic receptor.
T3 sequence (P35368 whole entry): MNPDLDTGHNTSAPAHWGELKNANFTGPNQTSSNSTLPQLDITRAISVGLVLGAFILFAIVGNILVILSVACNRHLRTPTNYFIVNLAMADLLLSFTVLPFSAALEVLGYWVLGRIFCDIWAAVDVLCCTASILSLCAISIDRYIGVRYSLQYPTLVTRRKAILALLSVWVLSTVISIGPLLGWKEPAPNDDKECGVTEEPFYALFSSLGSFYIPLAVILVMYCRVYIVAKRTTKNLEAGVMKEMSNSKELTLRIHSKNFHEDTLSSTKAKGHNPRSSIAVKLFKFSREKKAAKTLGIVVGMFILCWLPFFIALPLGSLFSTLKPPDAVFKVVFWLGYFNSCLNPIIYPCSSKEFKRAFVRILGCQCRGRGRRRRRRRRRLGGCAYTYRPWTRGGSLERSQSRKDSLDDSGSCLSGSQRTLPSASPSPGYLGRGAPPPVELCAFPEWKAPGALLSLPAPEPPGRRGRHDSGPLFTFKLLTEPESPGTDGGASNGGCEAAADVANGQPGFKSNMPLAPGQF

Row | Compound | pKi [1] | pKi [2] | pKi [3]
1 | CC(C)C(C(=O)NCCCN1CCC(C#N)(c2ccccc2)CC1)c1ccccc1 (racemic) | 5.54 | 7.14 | 5.92
2 | COC(=O)C1(c2ccccc2)CCN(CCCNC(=O)C2=C(C)N=C(C)/C(=C(/O)OC)C2c2ccc([N+](=O)[O-])cc2)CC1 (racemic) | 5.96 |  | 
3 | Cc1ccc(C(C(=O)NCCCN2CCC(C#N)(c3ccccc3C)CC2)c2ccc(C)cc2)cc1 | 5.96 | 8.89 | 6.44
4 | COC(=O)C1(c2ccccc2)CCN(CCNC(=O)CCc2ccc([N+](=O)[O-])cc2)CC1 | 5.82 | 6.42 | < 5.52
5 | Cc1ccccc1C1(C#N)CCN(CCCNC(=O)C(c2ccc(F)c(F)c2)C(C)C)CC1 (single isomer, unassigned; (-)) | 5.59 | 7.30 | 5.92
6 | COC(=O)C1(c2ccccc2)CCN(CCCNC(=O)C(C)c2ccc([N+](=O)[O-])cc2)CC1 (stereo not given) | 5.77 | 7.33 | 5.77
7 | Cc1ccccc1C1(C#N)CCN(CCCNC(=O)C(c2ccc(F)cc2)C(C)C)CC1 (stereo not given) | 5.62 | 7.62 | 6.02
8 | COC(=O)C1(c2ccccc2)CCN(CCCNC(=O)Cc2ccc(C)cc2)CC1 | 5.47 | 7.13 | < 5.52
9 | Cc1ccccc1C1(C#N)CCN(CCCNC(=O)C(c2ccc(F)c(F)c2)C(C)C)CC1 (stereo in doubt; 28) | 5.80 | 8.70 | 6.05
10 | Cc1ccc(C(C(=O)NCCCN2CCC(C#N)(c3ccccn3)CC2)c2ccc(C)cc2)cc1 | < 5.30 | 7.60 | < 5.70
11 | Cc1ccc(C(C(=O)NCCCN2CCC(C#N)(c3ccccc3C(F)(F)F)CC2)c2ccc(C)cc2)cc1 | 5.49 | 7.66 | 5.72
12 | N#CC1(c2ccccc2)CCN(CCCNC(=O)C(c2ccccc2)c2ccccc2)CC1 | 5.48 | 7.55 | 6.08
13 | Cc1ccccc1C1(C#N)CCN(CCCNC(=O)C(c2ccc(F)c(F)c2)C(C)C)CC1 (single isomer, unassigned; (+)) | 5.68 | 8.70 | 5.85
14 | Cc1ccc(C(C(=O)NCCCN2CCN(c3ccccc3)CC2)c2ccc(C)cc2)cc1 | 6.89 | 7.92 | 7.64
15 | Cc1ccc(C(C(=O)NCCCN2CCC(C#N)(c3ccccc3C)CC2)C(C)C)cc1 (stereo not given) | 5.96 | 8.13 | 6.19
16 | Cc1ccc(C(C(=O)NCCCN2CCC(C(N)=O)(c3ccccc3)CC2)c2ccc(C)cc2)cc1 | 5.48 | 6.24 | 6.24
17 | Cc1ccc(C(C(=O)NCCCN2CCN(c3ccccc3C)CC2)c2ccc(C)cc2)cc1 | 7.44 | 8.96 | 8.18
18 | Cc1ccc(C(C(=O)NCCCN2CCC(c3ccccn3)CC2)c2ccc(C)cc2)cc1 | 5.44 | 7.57 | 6.17
19 | N#CC1(c2ccccc2)CCN(CCCNC(=O)C(c2ccccc2)C2CCCCC2)CC1 (racemic) | 5.60 | 7.21 | 5.96
20 | Cc1ccccc1C1(C#N)CCN(CCCNC(=O)C(c2ccc(Cl)cc2)C(C)C)CC1 (stereo not given) | 5.89 | 8.19 | 6.06
21 | COc1ccccc1C1(C#N)CCN(CCCNC(=O)C(c2ccc(C)cc2)c2ccc(C)cc2)CC1 | 6.15 | 8.12 | 6.24
22 | COC(=O)C1(c2ccccc2)CCN(CCCNC(=O)Cc2ccc([N+](=O)[O-])cc2)CC1 | 5.20 | 7.12 | 5.48
23 | Cc1ccc(C(C(=O)NCCCN2CCC(c3ccccc3)CC2)c2ccc(C)cc2)cc1 | 6.64 | 8.06 | 7.47
24 | Cc1ccc(C(C(=O)NCCCN2CCC(C#N)(c3ccccc3Cl)CC2)c2ccc(C)cc2)cc1 | 6.22 | 9.00 | 6.55
25 | COC(=O)C1(c2ccccc2)CCN(CCCNC(=O)C(c2ccc(C)cc2)c2ccc(C)cc2)CC1 | 6.02 | 8.29 | 6.35
26 | N#CC1(c2ccccc2)CCN(CCCNC(=O)C(c2ccccc2)C2CCCC2)CC1 (racemic) | 5.64 | 7.30 | 5.70
27 | Cc1ccc(C(C(=O)NCCCN2CCC(C#N)(c3ccccc3)CC2)c2ccc(C)cc2)cc1 | 5.85 | 8.14 | < 5.70
28 | Cc1ccccc1C1(C#N)CCN(CCCNC(=O)C(c2cccc(F)c2)C(C)C)CC1 (stereo not given) | 5.57 | 8.47 | 6.17
29 | COC(=O)C1(c2ccccc2)CCN(CCCNC(=O)CCc2ccc([N+](=O)[O-])cc2)CC1 | 5.89 | 6.62 | 6.04
